Consider 23 compounds from patent publication US20240317754A1 (priority 2020, published 2024).

Each structure is given as a SMILES string. Read-outs that look alike come from different tables or passages of the source. Some results are limits rather than exact numbers.

What all share (experiment): microbe, parasite or virus in culture
Common to all, as to assay type: cell-based

The test system of test [1] is SARS-CoV replicon. The note with it: Severe acute respiratory syndrome coronavirus, HEK-293T, 60 h.
The test system of test [2] is SARS-CoV-2 replicon. The settings on record: HEK293T cells; for IC50 / inhibition at 10 µM: Severe acute respiratory syndrome coronavirus 2, HEK-293T, 60 h.
Test [3] relates to SARS-CoV-2 (B.1).
Where [4] appears, read: Severe acute respiratory syndrome coronavirus 2, Vero C1008, 48 h.

Regarding `CC(C)C(=O)Nc1ncnn2c([C@]3(C#N)O[C@H](COC(=O)C(C)C)[C@@H](OC(=O)C(C)C)[C@H]3OC(=O)C(C)C)ccc12` [ATV001, (2R,3R,4R,5R)-2-cyano-2-(4-isobutyramidopyrrolo[2,1-f][1,2,4]triazin-7-PGP-yl)-5-((isobutyryloxy)methyl)tetrahydrofuran-3,4-diyl bis(2-methylpropanoate)], 10 µM produced 66.8% inhibition in test [1]. Besides, the “antiviral activity relative to GS-441524” value in test [2] (in words) is given as “significantly lower than that of GS-441524”. In test [2], this compound displayed a half-maximal inhibitory concentration (IC50) of over 50000 nM.

`CC(=O)Nc1ncnn2c([C@]3(C#N)O[C@H](COC(C)=O)[C@@H](OC(C)=O)[C@H]3OC(C)=O)ccc12` [ATV002, (2R,3R,4R,5R)-2-(4-acetamidopyrrolo[2,1-f][1,2,4]triazin-7-yl)-5-(acetoxymethyl)-2-cyanotetrahydrofuran-3,4-diyl diacetate] registered an inhibition at 10 µM in test [1] of 61%. The “antiviral activity relative to GS-441524” value in test [2] (in words) is “significantly lower than that of GS-441524”. Moreover, the IC50 in test [2] is over 50000 nM.

On to `CC(=O)OC[C@H]1O[C@@](C#N)(c2ccc3c(N)ncnn23)[C@H](OC(C)=O)[C@@H]1OC(C)=O` [ATV003, (2R,3R,4R,5R)-5-(acetoxymethyl)-2-(4-aminopyrrolo[2,1-f][1,2,4]triazin-7-yl)-2-cyanotetrahydrofuran-3,4-diyl diacetate], for which, in test [1], the IC50 is 910 nM and 10 µM produced 98.8% inhibition. In test [2], at 10 µM the inhibition was 97.6% and the IC50 was determined as 830 nM.

`CC(C)C(=O)OC[C@H]1O[C@@](C#N)(c2ccc3c(N)ncnn23)[C@H](OC(=O)C(C)C)[C@@H]1OC(=O)C(C)C` [ATV004, (2R,3R,4R,5R)-2-(4-aminopyrrolo[2,1-f][1,2,4]triazin-7-yl)-2-cyano-5-((isobutyryloxy)methyl)tetrahydrofuran-3,4-diyl bis(2-methylpropanoate)] gave an inhibition at 5 µM in test [1] of 91.8%. The “antiviral activity relative to GS-441524” value in test [2] (in words) is “improved”. In addition, in test [2], the inhibition at 10 µM worked out at 97.5% and the concentration for half-maximal inhibition (IC50) was 680 nM.

As to `CCCCCOC(=O)Nc1ncnn2c([C@]3(C#N)O[C@H](CO)[C@@H](O)[C@H]3O)ccc12` [ATV005, Pentyl (7-((2R,3R,4S,5R)-2-cyano-3,4-dihydroxy-5-(hydroxymethyl)tetrahydrofuran-2-yl)pyrrolo[2,1-f][1,2,4]triazin-4-yl)carbamate], the inhibition at 10 µM in test [1] worked out at 73.3%. Besides, in test [2], the IC50 was over 50000 nM.

Turning to `CC(=O)OC[C@H]1O[C@@](C#N)(c2ccc3c(N)ncnn23)[C@H](O)[C@@H]1O` [ATV007, ((2R,3S,4R,5R)-5-(4-aminopyrrolo[2,1-f][1,2,4]triazin-7-yl)-5-cyano-3,4-dihydroxytetrahydrofuran-2-yl)methyl acetate], at 10 µM the inhibition in test [2] was 91.6%.

In test [2], `CCC(=O)OC[C@H]1O[C@@](C#N)(c2ccc3c(N)ncnn23)[C@H](O)[C@@H]1O` [ATV008, ((2R,3S,4R,5R)-5-(4-aminopyrrolo[2,1-f][1,2,4]triazin-7-yl)-5-cyano-3,4-dihydroxytetrahydrofuran-2-yl)methyl propionate] had an inhibition at 10 µM of 98.2%.

For `CCCC(=O)OC[C@H]1O[C@@](C#N)(c2ccc3c(N)ncnn23)[C@H](O)[C@@H]1O` [ATV009, ((2R,3S,4R,5R)-5-(4-aminopyrrolo[2,1-f][1,2,4]triazin-7-yl)-5-cyano-3,4-dihydroxytetrahydrofuran-2-yl)methyl butyrate], in test [2] (in words), the “antiviral activity relative to GS-441524” value is “improved”. For the same compound, in test [2], the inhibition at 10 µM turned out to be 98.8% and the concentration for half-maximal inhibition (IC50) amounted to 220 nM. For the same compound, 1330 nM corresponded to half-maximal inhibition in test [3] (setting [4]) (IC50).

On to `CCCCCCCCC(=O)OC[C@H]1O[C@@](C#N)(c2ccc3c(N)ncnn23)[C@H](O)[C@@H]1O` [ATV010, ((2R,3S,4R,5R)-5-(4-aminopyrrolo[2,1-f][1,2,4]triazin-7-yl)-5-cyano-3,4-dihydroxytetrahydrofuran-2-yl)methyl nonanoate], for which, in test [2] (in words), the “antiviral activity relative to GS-441524” value is recorded as “improved”. In test [2], this compound returned an inhibition at 10 µM of 99% and a half-inhibitory concentration (IC50) of 320 nM. In addition, in test [3] (setting [4]), the midpoint of inhibition, the IC50, lay at 696 nM.

In the case of `CCC(CC)C(=O)OC[C@H]1O[C@@](C#N)(c2ccc3c(N)ncnn23)[C@H](O)[C@@H]1O` [ATV011, ((2R,3S,4R,5R)-5-(4-aminopyrrolo[2,1-f][1,2,4]triazin-7-yl)-5-cyano-3,4-dihydroxytetrahydrofuran-2-yl)methyl 2-ethylbutanoate], the “antiviral activity relative to GS-441524” value in test [2] (in words) is given as “improved”. This compound showed an inhibition at 10 µM in test [2] of 98.9%. The half-maximal inhibitory concentration (IC50) stood at 320 nM in test [2] and 2120 nM in test [3] (setting [4]).

`N#C[C@@]1(c2ccc3c(N)ncnn23)O[C@H](COC(=O)C2CC2)[C@@H](O)[C@H]1O` [ATV012, ((2R,3S,4R,5R)-5-(4-aminopyrrolo[2,1-f][1,2,4]triazin-7-yl)-5-cyano-3,4-dihydroxytetrahydrofuran-2-yl)methyl cyclopropanecarboxylate] had an inhibition at 10 µM in test [2] of 97.1%.

In test [2], `N#C[C@@]1(c2ccc3c(N)ncnn23)O[C@H](COC(=O)c2ccccc2)[C@@H](O)[C@H]1O` [ATV013, ((2R,3S,4R,5R)-5-(4-aminopyrrolo[2,1-f][1,2,4]triazin-7-yl)-5-cyano-3,4-dihydroxytetrahydrofuran-2-yl)methyl benzoate] returned an inhibition at 10 µM of 97.7%. The IC50 in test [2] turned out to be 500 nM; in test [3] (setting [4]) it was 2260 nM.

For the compound `N#C[C@@]1(c2ccc3c(N)ncnn23)O[C@H](COC(=O)C2CCCCC2)[C@@H](O)[C@H]1O` [ATV014, ((2R,3S,4R,5R)-5-(4-aminopyrrolo[2,1-f][1,2,4]triazin-7-yl)-5-cyano-3,4-dihydroxytetrahydrofuran-2-yl)methyl cyclohexanecarboxylate], in test [2] (in words), the “antiviral activity relative to GS-441524” value was “lower IC50 values and higher antiviral activity”; the “inhibition of SARS-CoV-2 replicon replication” value was “significant inhibitory effects”. Moreover, in test [2], 10 µM produced 98.2% inhibition and 260 nM corresponded to half-maximal inhibition (IC50). This compound displayed an IC50 in test [3] of 331 nM.

Regarding `N#C[C@@]1(c2ccc3c(N)ncnn23)O[C@H](COC(=O)C2CCCC2)[C@@H](O)[C@H]1O` [ATV015, ((2R,3S,4R,5R)-5-(4-aminopyrrolo[2,1-f][1,2,4]triazin-7-yl)-5-cyano-3,4-dihydroxytetrahydrofuran-2-yl)methyl cyclopentanecarboxylate], in test [2], the inhibition at 10 µM stood at 97.9% and the IC50 worked out at 710 nM.

Regarding `N#C[C@@]1(c2ccc3c(N)ncnn23)O[C@H](COC(=O)CC(F)(F)F)[C@@H](O)[C@H]1O` [ATV016, ((2R,3S,4R,5R)-5-(4-aminopyrrolo[2,1-f][1,2,4]triazin-7-yl)-5-cyano-3,4-dihydroxytetrahydrofuran-2-yl)methyl3,3,3-trifluoropropanoate], in test [2], at 10 µM the inhibition was 97.2% and it took 830 nM to reach half-maximal inhibition (IC50).

Regarding `CC(C)[C@@H](N)C(=O)OC[C@H]1O[C@@](C#N)(c2ccc3c(N)ncnn23)[C@H](O)[C@@H]1O` [ATV019, ((2R,3S,4R,5R)-5-(4-aminopyrrolo[2,1-f][1,2,4]triazin-7-yl)-5-cyano-3,4-dihydroxytetrahydrofuran-2-yl)methyl D-valinate], in test [1], the 50% inhibitory concentration (IC50) was 790 nM and at 10 µM the inhibition was 98.6%. Besides, in test [2], the inhibition at 10 µM was 97.2% and the half-inhibitory concentration (IC50) stood at 970 nM.

As for `CC(C)[C@H](N)C(=O)OC[C@H]1O[C@@](C#N)(c2ccc3c(N)ncnn23)[C@H](O)[C@@H]1O` [ATV020, ((2R,3S,4R,5R)-5-(4-aminopyrrolo[2,1-f][1,2,4]triazin-7-yl)-5-cyano-3,4-dihydroxytetrahydrofuran-2-yl)methyl L-valinate], in test [1], the IC50 was 1300 nM and the inhibition at 10 µM came to 99.2%. Further, in test [2], 10 µM produced 99.2% inhibition and the IC50 came to 2350 nM.

In the case of `N#C[C@@]1(c2ccc3c(N)ncnn23)O[C@H](COC(=O)[C@@H](N)Cc2ccccc2)[C@@H](O)[C@H]1O` [ATV021, ((2R,3S,4R,5R)-5-(4-aminopyrrolo[2,1-f][1,2,4]triazin-7-yl)-5-cyano-3,4-dihydroxytetrahydrofuran-2-yl)methyl L-phenylalaninate], in test [2], at 10 µM the inhibition was 0%.

In test [2], `N#C[C@@]1(c2ccc3c(N)ncnn23)O[C@H](COC(=O)[C@H](N)Cc2ccccc2)[C@@H](O)[C@H]1O` [ATV022, ((2R,3S,4R,5R)-5-(4-aminopyrrolo[2,1-f][1,2,4]triazin-7-yl)-5-cyano-3,4-dihydroxytetrahydrofuran-2-yl)methyl D-phenylalaninate] showed an inhibition at 10 µM of 0%.

Consider `CCC(C)[C@H](N)C(=O)OC[C@H]1O[C@@](C#N)(c2ccc3c(N)ncnn23)[C@H](O)[C@@H]1O` (stereo partly drawn) [ATV023, ((2R,3S,4R,5R)-5-(4-aminopyrrolo[2,1-f][1,2,4]triazin-7-yl)-5-cyano-3,4-dihydroxytetrahydrofuran-2-yl)methyl (2S)-2-amino-3-methylpentanoate], for which, in test [2], 10 µM produced 98.7% inhibition and it took 950 nM to reach half-maximal inhibition (IC50).

In test [2], `CCC(C)[C@@H](N)C(=O)OC[C@H]1O[C@@](C#N)(c2ccc3c(N)ncnn23)[C@H](O)[C@@H]1O` (stereo partly drawn) [ATV024, ((2R,3S,4R,5R)-5-(4-aminopyrrolo[2,1-f][1,2,4]triazin-7-yl)-5-cyano-3,4-dihydroxytetrahydrofuran-2-yl)methyl (2R)-2-amino-3-methylpentanoate] had an inhibition at 10 µM of 99.1% and a concentration for half-maximal inhibition (IC50) of 860 nM.

Regarding `CC(C)C(=O)OC[C@H]1O[C@@](C#N)(c2cc(F)c3c(N)ncnn23)[C@H](O)[C@@H]1O` [ATV025, ((2R,3S,4R,5R)-5-(4-amino-5-fluoropyrrolo[2,1-f][1,2,4]triazin-7-yl)-5-cyano-3,4-dihydroxytetrahydrofuran-2-yl)methyl isobutyrate], in test [2], testing at 10 µM gave an inhibition of 97.8% and inhibition was half-maximal at 890 nM (IC50).

`CC1(C)O[C@H]2[C@@H](O1)[C@](C#N)(c1ccc3c(N)ncnn13)O[C@@H]2CO` [Intermediate 5 of RDV, reference compound]: 10 µM produced 75.9% inhibition in test [1]. Further, the IC50 in test [2] was over 50000 nM.

What is called inhibition is the change of the read-out against control, counted positive when it falls. As a reminder, the IC50 is the concentration that inhibits the measured activity by half.
